pIC50: −log10 of the molar value.

For the first assay, the target named is T1, human cathepsin S (CatS) (Homo sapiens, UniProt P25774).
T1 construct: made in house; host or cells: baculovirus system (insect cells)
T1 sequence (P25774 115-331): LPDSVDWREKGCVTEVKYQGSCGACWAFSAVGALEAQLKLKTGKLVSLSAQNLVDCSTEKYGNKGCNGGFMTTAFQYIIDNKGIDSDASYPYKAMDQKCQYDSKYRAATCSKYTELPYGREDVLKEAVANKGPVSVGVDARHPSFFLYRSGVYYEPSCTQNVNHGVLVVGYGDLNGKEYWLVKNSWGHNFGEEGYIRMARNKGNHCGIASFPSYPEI
The assay is described as follows: Recombinant human cathepsin S (CatS) fluorogenic substrate inhibition assay. The class given is biochemical.
Details: not given
The protocol: Recombinant human cathepsin S (CatS) was expressed in the baculovirus system and purified in one step with a thiopropyl-sepharose column. […] The assay is run in 150 mM sodium acetate pH 5.0 containing 1.5 mM DTT and 150 mM NaCl. […] Measurements are taken every min for 20 min. The rate is calculated from the slope of the increase in fluorescence and the percent inhibition is calculated from this.
Turning to `COc1ccccc1C1CCN(CC(O)Cn2nc(-c3ccc(C(F)(F)F)c(CNC(=O)CC(C)C)c3)c3c2CCN(S(C)(=O)=O)C3)CC1` (stereo not drawn) [Example 259, N-[5-(1-{2-Hydroxy-3-[4-(2-methoxy-phenyl)-piperidin-1-yl]-propyl}-5-methanesulfonyl-4,5,6,7-tetrahydro-1H-pyrazolo[4,3-c]pyridin-3-yl)-2-trifluoromethyl-benzyl]-3-methyl-butyramide], the pIC50 is 7.70.

The same assay, now with this note: recombinant human CatS, 10 μM Z-Valine-Valine-Arginine-AMC, pH 5.0; average of results obtained; read-out: CatS IC50.
As for `CC(C)=CC(=O)NCc1cc(-c2nn(CC(O)CN3CCN(c4c(Cl)cncc4Cl)CC3)c3c2CN(S(C)(=O)=O)CC3)ccc1C(F)(F)F` (stereo not drawn) [Example 265, 3-Methyl-but-2-enoic acid 5-(1-{3-[4-(3,5-dichloro-pyridin-4-yl)-piperazin-1-yl]-2-hydroxy-propyl}-5-methanesulfonyl-4,5,6,7-tetrahydro-1H-pyrazolo[4,3-c]pyridin-3-yl)-2-trifluoromethyl-benzylamide], the pIC50 is 8.00. With `CC(C)=CC(=O)NCc1cc(-c2nn(CC(O)CN3CCC(N4CCOCC4)CC3)c3c2CN(S(C)(=O)=O)CC3)ccc1C(F)(F)F` (stereo not drawn) [Example 30, 3-Methyl-but-2-enoic acid 5-{1-[2-hydroxy-3-(4-morpholin-4-yl-piperidin-1-yl)-propyl]-5-methanesulfonyl-4,5,6,7-tetrahydro-1H-pyrazolo[4,3-c]pyridin-3-yl}-2-trifluoromethyl-benzylamide], the pIC50 was 7.40. `CC(C)CC(=O)NCc1cc(-c2nn(CCCN3CCC(N4CCCC4=O)CC3)c3c2CN(S(C)(=O)=O)CC3)ccc1C(F)(F)F` [Example 36, N-[5-(5-Methanesulfonyl-1-{3-[4-(2-oxo-pyrrolidin-1-yl)-piperidin-1-yl]-propyl}-4,5,6,7-tetrahydro-1H-pyrazolo[4,3-c]pyridin-3-yl)-2-trifluoromethyl-benzyl]-3-methyl-butyramide]: the pIC50 is 7.10. On the same count and under the same terms, the same measure for `CCSC(=O)NCc1cc(-c2nn(CCCN3CCC(N4CCCC4=O)CC3)c3c2CN(S(C)(=O)=O)CC3)ccc1C(F)(F)F` [Example 138, [5-(5-Methanesulfonyl-1-{3-[4-(2-oxo-pyrrolidin-1-yl)-piperidin-1-yl]-propyl}-4,5,6,7-tetrahydro-1H-pyrazolo[4,3-c]pyridin-3-yl)-2-trifluoromethyl-benzyl]-thiocarbamic acid S-ethyl ester]: 6.37. As for `CC(C)CC(=O)NCc1cc(-c2nn(CC(O)CN3CCC(c4nnnn4Cc4ccccc4)CC3)c3c2CN(S(C)(=O)=O)CC3)ccc1C(F)(F)F` (stereo not drawn) [Example 256, N-[5-(1-{3-[4-(1-Benzyl-1H-tetrazol-5-yl)-piperidin-1-yl]-2-hydroxy-propyl}-5-methanesulfonyl-4,5,6,7-tetrahydro-1H-pyrazolo[4,3-c]pyridin-3-yl)-2-trifluoromethyl-benzyl]-3-methyl-butyramide], the pIC50 was 7.15. Regarding `CS(=O)(=O)N1CCc2c(c(-c3ccc(Cl)c(NC(=O)c4ccc(C#N)cc4)c3)nn2CCCN2CCN(c3cccc(Cl)c3)CC2)C1` [Example 201, N-[2-Chloro-5-(1-{3-[4-(3-chloro-phenyl)-piperazin-1-yl]-propyl}-5-methanesulfonyl-4,5,6,7-tetrahydro-1H-pyrazolo[4,3-c]pyridin-3-yl)-phenyl]-4-cyano-benzamide], the negative logarithm of the IC50 (pIC50) is 6.24. With `CS(=O)(=O)N1CCc2c(c(-c3ccc(Cl)c(CNC(=O)c4ccc(F)cc4)c3)nn2CC(O)CN2CCC(N3CCOCC3)CC2)C1` (stereo not drawn) [Example 79, N-(2-Chloro-5-{1-[2-hydroxy-3-(4-morpholin-4-yl-piperidin-1-yl)-propyl]-5-methanesulfonyl-4,5,6,7-tetrahydro-1H-pyrazolo[4,3-c]pyridin-3-yl}-benzyl)-4-fluoro-benzamide], the negative logarithm of the IC50 (pIC50) was 7.22. The same measure, in the same setting: the same measure for `COc1ccccc1C1CCN(CC(O)Cn2nc(-c3ccc(C(F)(F)F)c(CNC(=O)C=C(C)C)c3)c3c2CCN(S(C)(=O)=O)C3)CC1` (stereo not drawn) [Example 264, 3-Methyl-but-2-enoic acid 5-(1-{2-hydroxy-3-[4-(2-methoxy-phenyl)-piperidin-1-yl]-propyl}-5-methanesulfonyl-4,5,6,7-tetrahydro-1H-pyrazolo[4,3-c]pyridin-3-yl)-2-trifluoromethyl-benzylamide]: 8.00. With `CN(C)CC(=O)NCc1cc(-c2nn(CC(O)CN3CCC(N4CCCC4)CC3)c3c2CN(S(C)(=O)=O)CC3)ccc1C(F)(F)F` (stereo not drawn) [Example 243, 2-Dimethylamino-N-(5-{1-[2-hydroxy-3-(4-pyrrolidin-1-yl-piperidin-1-yl)-propyl]-5-methanesulfonyl-4,5,6,7-tetrahydro-1H-pyrazolo[4,3-c]pyridin-3-yl}-2-trifluoromethyl-benzyl)-acetamide], the pIC50 is 5.28. Still for that read-out and setting: the figure for `CN(C)c1ccc(C(=O)Nc2cc(-c3nn(CCCN4CCN(c5cccc(Cl)c5)CC4)c4c3CN(S(C)(=O)=O)CC4)ccc2Cl)cc1` [Example 199, N-[2-Chloro-5-(1-{3-[4-(3-chloro-phenyl)-piperazin-1-yl]-propyl}-5-methanesulfonyl-4,5,6,7-tetrahydro-1H-pyrazolo[4,3-c]pyridin-3-yl)-phenyl]-4-dimethylamino-benzamide] is 6.33; for `CS(=O)(=O)N1CCc2c(c(-c3ccc(C(F)(F)F)c(CNC(=O)Cc4ccncc4)c3)nn2CCCN2CCC(N3CCCC3=O)CC2)C1` [Example 189, N-[5-(5-Methanesulfonyl-1-{3-[4-(2-oxo-pyrrolidin-1-yl)-piperidin-1-yl]-propyl}-4,5,6,7-tetrahydro-1H-pyrazolo[4,3-c]pyridin-3-yl)-2-trifluoromethyl-benzyl]-2-pyridin-4-yl-acetamide] it is 6.29. As for `CS(=O)(=O)c1csc(C(=O)NCc2cc(-c3nn(CC(O)CN4CCC(N5CCCC5=O)CC4)c4c3CN(S(C)(=O)=O)CC4)ccc2C(F)(F)F)c1Cl` (stereo not drawn) [Example 217, 3-Chloro-4-methanesulfonyl-thiophene-2-carboxylic acid 5-(1-{2-hydroxy-3-[4-(2-oxo-pyrrolidin-1-yl)-piperidin-1-yl]-propyl}-5-methanesulfonyl-4,5,6,7-tetrahydro-1H-pyrazolo[4,3-c]pyridin-3-yl)-2-trifluoromethyl-benzylamide], the pIC50 was 6.22. Consider `CS(=O)(=O)N1CCc2c(c(-c3ccc(C(F)(F)F)c(CNC(=O)CN4CCCC4=O)c3)nn2CCCN2CCC(N3CCCC3=O)CC2)C1` [Example 182, N-[5-(5-Methanesulfonyl-1-{3-[4-(2-oxo-pyrrolidin-1-yl)-piperidin-1-yl]-propyl}-4,5,6,7-tetrahydro-1H-pyrazolo[4,3-c]pyridin-3-yl)-2-trifluoromethyl-benzyl]-2-(2-oxo-pyrrolidin-1-yl)-acetamide], for which the pIC50 is 6.05. As for `CS(=O)(=O)N1CCc2c(c(-c3ccc(C(F)(F)F)c(CNC(=O)Cc4ccccc4)c3)nn2CCCN2CCC(N3CCCC3=O)CC2)C1` [Example 37, N-[5-(5-Methanesulfonyl-1-{3-[4-(2-oxo-pyrrolidin-1-yl)-piperidin-1-yl]propyl}-4,5,6,7-tetrahydro-1H-pyrazolo[4,3-c]pyridin-3-yl)-2-trifluoromethyl-benzyl]-2-phenyl-acetamide], the negative logarithm of the IC50 (pIC50) was 6.32.

For the compound `CC(C)CC(=O)NCc1cc(-c2nn(CC(O)CN3CCC(C(=O)N4CCOCC4)CC3)c3c2CN(S(C)(=O)=O)CC3)ccc1C(F)(F)F` (stereo not drawn) [Example 260, N-[5-(1-{2-Hydroxy-3-[4-(morpholine-4-carbonyl)-piperidin-1-yl]-propyl}-5-methanesulfonyl-4,5,6,7-tetrahydro-1H-pyrazolo[4,3-c]pyridin-3-yl)-2-trifluoromethyl-benzyl]-3-methyl-butyramide], the pIC50 was 6.92. For the compound `CS(=O)(=O)N1CCc2c(c(-c3ccc(C(F)(F)F)c(CNC(=O)C4CCCCCC4)c3)nn2CC(O)CN2CCC(N3CCCC3=O)CC2)C1` (stereo not drawn) [Example 130, Cycloheptanecarboxylic acid 5-(1-{2-hydroxy-3-[4-(2-oxo-pyrrolidin-1-yl)-piperidin-1-yl]-propyl}-5-methanesulfonyl-4,5,6,7-tetrahydro-1H-pyrazolo[4,3-c]pyridin-3-yl)-2-trifluoromethyl-benzylamide], the pIC50 was 6.57. Same read-out and setting: the same measure for `CS(=O)(=O)N1CCc2c(c(-c3ccc(Cl)c(NS(=O)(=O)c4ccccc4)c3)nn2CCCN2CCN(c3cccc(Cl)c3)CC2)C1` [Example 204, N-[2-Chloro-5-(1-{3-[4-(3-chloro-phenyl)-piperazin-1-yl]-propyl}-5-methanesulfonyl-4,5,6,7-tetrahydro-1H-pyrazolo[4,3-c]pyridin-3-yl)-phenyl]-benzenesulfonamide]: 6.15; for `CSCC(=O)NCc1cc(-c2nn(CCCN3CCC(N4CCCC4=O)CC3)c3c2CN(S(C)(=O)=O)CC3)ccc1C(F)(F)F` [Example 125, N-[5-(5-Methanesulfonyl-1-{3-[4-(2-oxo-pyrrolidin-1-yl)-piperidin-1-yl]-propyl}-4,5,6,7-tetrahydro-1H-pyrazolo[4,3-c]pyridin-3-yl)-2-trifluoromethyl-benzyl]-2-methylsulfanyl-acetamide]: 6.70; for `CS(=O)(=O)N1CCc2c(c(-c3ccc(C(F)(F)F)c(CNC(=O)Cn4cncn4)c3)nn2CCCN2CCC(N3CCCC3=O)CC2)C1` [Example 188, N-[5-(5-Methanesulfonyl-1-{3-[4-(2-oxo-pyrrolidin-1-yl)-piperidin-1-yl]-propyl}-4,5,6,7-tetrahydro-1H-pyrazolo[4,3-c]pyridin-3-yl)-2-trifluoromethyl-benzyl]-2-[1,2,4]triazol-1-yl-acetamide]: 6.23. For `CS(=O)(=O)N1CCc2c(c(-c3ccc(Cl)c(CNC(=O)c4ccc(F)cc4)c3)nn2CC(O)CN2CCC(N3CCCCC3=O)CC2)C1` (stereo not drawn) [Example 72, N-(2-Chloro-5-{1-[2-hydroxy-3-(2-oxo-[1,4′]bipiperidinyl-1′-yl)-propyl]-5-methanesulfonyl-4,5,6,7-tetrahydro-1H-pyrazolo[4,3-c]pyridin-3-yl}-benzyl)-4-fluoro-benzamide], the pIC50 is 8.00.

Broadly, the pIC50 is the IC50 on a negative log10 scale, so that one unit is a factor of ten.

These data come from patent publication US20080269241A1, “BICYCLIC AMINOPROPYL TETRAHYDRO-PYRAZOLO-PYRIDINE MODULATORS OF CATHEPSIN S” (priority 2007, published 2008).
